These results are taken from patent US20070112013A1, “Method of modulating ion channel functional activity” (Australian National University, priority 1998, published 2007).

For experiment [1], the system named is HIV-1. The experiment can be described thus: PCR based assay of newly synthesised HIV DNA in human monocytes and macrophages. Format: cell-based. Conditions: 50 μM. The method, then: Human monocytes were isolated from peripheral blood and cultured either for 24 hr (one day old monocytes) or for 7 days to allow differentiation into monocyte derived macrophages (MDM). These cells were then exposed to cell-free preparations of HIV isolates and allowed to absorb for 2 hr before complete aspiration of the medium, washing once with virus-free medium and resuspension in fresh medium. The cells were exposed to 50-10 μM HMA or DMA either 24 hr prior to infection or after infection. Subsequent HIV replication, at various times after infection, was compared in cells exposed to drugs and in cells not exposed to drugs (controls). The progression and extent of viral replication was assayed using either an HIV DNA PCR method (Fear et al, 1998) or an ELISA method to quantitate p24 in culture supernatants (Kelly et al, 1998).
(§1) Subsequent tests were carried out to establish whether there was any anti-viral activity of HMA and DMA. Two tests were performed to characterise the effects of the drugs on HIV replication in human monocytes and macrophages: a) A PCR based assay was used to detect newly synthesised DNA arising from reverse transcription of the HIV genome, an early stage in virus replication; b) An ELISA method was used to quantitate production of the viral protein p24, reflecting a later stage in the replication process.

Experiment [2] deals with T1, Vpu ion channel (Human immunodeficiency virus type 1 group M subtype B, UniProt P05919).
T1 construct: The vpu ORF was cloned in-frame at the 3′ end of the GST gene in p2GEX to generate p2GEXVpu; GST (N, cleaved yes); made in house; host or cells: E. coli XL1-blue containing p2GEXVpu
The experiment can be described thus: Vpu ion channel activity in planar lipid bilayers. Format: biochemical, HIV-1. Conditions: concentrations of 50-250μM. The source says:
FIG. 6 is a graphical representation of the inhibition of Vpu ion channel activity by 5-(N,N-hexamethylene)-arniloride (HMA) in planar lipid bilayers. The three traces represent typical Vpu channel activity observed in the presence of the indicated concentrations of HMA. The solid line indicates the zero current level. Mean currents (±variance), calculated for continuous channel recordings of at least 30 seconds duration, are plotted in the graph for each of the three drug concentrations.
Purified Vpu was tested for its ability to induce channel activity in planar lipid bilayers using standard techniques as described elsewhere (Miller, 1986; and Piller et al, 1996). The solutions in the CIS and TRANS chambers were separated by a Delrin™ plastic wall containing a small circular hole of approximately 100 μm diameter across which a lipid bilayer was painted so as to form a high resistance electrical seal. Bilayers were painted from a mixture (8:2) of palrnitoyl-oleoly-phosphatidyl-ethanolamine and palmitoyl-oleoly-phosphatidyl-choline (Avanti Polar Lipids, Alabaster, Alabama) in n-decane. The solutions in the two chambers contained MES buffer (10 mM, pH 6.0) to which various NaCl or KCl concentrations were added. Currents were recorded with an Axopatch™ 200 amplifier. The electrical potential between the two chambers could be manipulated between ±200 mV (TRANS relative to grounded CIS). Aliquots containing Vpu were added to the CIS chamber either as a detergent solution or after incorporation of the protein into phospholipid vesicles. The chamber was stirred until currents were observed.

Experiment [3] has as its system HIV-1. As to the kind of experiment: p24 ELISA of HIV virion production in human monocytes and macrophages. It is filed as cell-based. Here is the method: FIG. 7 is a graphical representation of the effect of HMA on HIV virion production in monocytes and monocyte-derived macrophages. HIV in culture supernatants was assayed at various days post-infection by detection of p24 antigen using a quantitative ELISA method. Solid black bars represent HIV-infected cells exposed to 10 μM HMA. Hatched bars are control cells not exposed to drug.
Human monocytes were isolated from peripheral blood and cultured either for 24 hr (one day old monocytes) or for 7 days to allow differentiation into monocyte derived macrophages (MDM). […] The progression and extent of viral replication was assayed using either an HIV DNA PCR method (Fear et al, 1998) or an ELISA method to quantitate p24 in culture supernatants (Kelly et al, 1998).
as §1
(In general: In an ELISA, binding on a coated surface is turned into a signal by an enzyme label.)

Experiment [4] concerns the target T1, Vpu ion channel. As to the kind of experiment: Bio-assay for Vpu channel blockers: growth of E. coli XL1-blue expressing Vpu on plates lacking adenine. Format: cell-based, HIV-1. The settings on record: XL1-blue E. coli containing pPL-Vpu, medium lacking adenine, 37° C. Here is the method:
FIG. 5 is a graphical representation of the screening of drugs for potential Vpu channel blockers. […] Numbers 6-11 are located at the sites of application of various drugs being tested, which were applied in 3μl drops and allowed to soak into the agarose. The plate was then incubated at 37° C. for 48hr prior to being photographed. The background grey shade corresponds to areas of no bacterial growth. The bright circular area around “10” represents bacterial cell growth as a result of application of adenine at that location (positive control).
As part of a search for drugs that block the Vpu ion channel, a novel bio-assay was developed to facilitate the screening process which would be prohibitively slow if performed in the bilayer assay (Ewart et al, 1996). This bio-assay is based on the observation that expression of Vpu in E.coli results in an active Vpu channel located in the plasmalemma that dissipates the transmembrane sodium gradient. As a consequence of this Vpu channel activity, metabolites whose accumulation within the cells is mediated by a sodium dependent co-transporter (for example proline or adenine) leak out of the cell faster than they can be synthesised so that the metabolites' intracellular levels become limiting for growth of the cell. Thereby, an E. coli cell expressing Vpu is unable to grow in minimal drop-out media lacking adenine or proline. However, in the presence of a drug that blocks the Vpu channel, the cell is once again able to re-establish its transmembrane sodium gradient—due to the action of other ion pumps in the membrane—and the leakage of metabolites is prevented enabling growth.
It was observed that, due to an uncharacterised mutation in the adenine synthesis pathway, growth of E. coli cells of the XL1-blue strain expressing Vpu at 37° C. was dependant on the presence of adenine in the medium. […]

Experiment [5] relates to HIV. The experiment can be described thus: Effect on HIV replication (test not specified). Format: cell-based.

Molecules are shown by their SMILES.

T1 sequence (P05919 whole entry): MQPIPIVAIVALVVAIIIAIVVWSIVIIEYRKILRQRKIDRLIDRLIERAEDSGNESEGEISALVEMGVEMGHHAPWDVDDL

As for `CN(C)c1nc(N)c(C(=O)N=C(N)N)nc1Cl` [DMA, 5-(N,N-Dimethyl)-Amiloride], in experiment [1], the “synthesis of HIV DNA in the cells” value is “inhibited synthesis of HIV DNA”. In addition, the “inhibition of Vpu ion-channel activity” value in experiment [2] is given as “inhibit channel activity, though not as potently as HMA”. Besides, in experiment [3] (50 μM, data not shown), the “HIV virion synthesis (p24 ELISA)” value is recorded as “clear inhibition of HIV virion synthesis”.
Take `NC(N)=NC(=O)c1nc(Cl)c(N2CCCCCC2)nc1N` [HMA, 5-(N,N-Hexamethylene)-Amiloride]: the entries for the “halo of bacterial growth around the site of application (inhibition of Vpu channel)” value in experiment [4] and in experiment [4] (listed as 5-(N,N-hexamethylene)-anmiloride) were “a halo of growth” and “smaller halo of bacterial growth”, respectively. In addition, in experiment [2], the “inhibition of Vpu ion-channel activity” value was “block ion flow through the channel”. In addition, the “HIV virion synthesis (p24 ELISA)” value in experiment [3] (10 μM, monocytes (FIG. 7A) and macrophages (FIG. 7B)) was “clear inhibition of HIV virion synthesis”.
On to `N=C(N)NC(=O)c1nc(Cl)c(N)nc1N` [amiloride, reference compound], for which the “halo of bacterial growth around the site of application (inhibition of Vpu channel)” value in experiment [4] is on record as “did not produce a halo of bacterial growth”. In addition, the “inhibition of Vpu ion-channel activity” value in experiment [2] is reported as “not active as a channel blocker”. Further, in experiment [5], the “effect on HIV replication” value is recorded as “no effect on HIV replication”.
